Experimental data: paper PMC8125234, “Cardiolipin Stabilizes and Increases Catalytic Efficiency of Carnitine Palmitoyltransferase II and Its Variants S113L, P50H, and Y479F” (International Journal of Molecular Sciences, 2021)
Where a chain is given by its changes, count along the chain named. Entries after “also recorded” stand apart in the source; their conditions may differ.

Assays:
[1] = molecular target: T1, CPT II variant P50H (Homo sapiens, UniProt P23786, P50H); experiment: Lipid binding assay (membrane lipid strips); details: 0.4 mg enzyme, 100 pmol lipid spots
T1 construct: made in house; host or cells: Escherichia coli BL21Gold DE
T1 sequence (P23786 26-658 P50H): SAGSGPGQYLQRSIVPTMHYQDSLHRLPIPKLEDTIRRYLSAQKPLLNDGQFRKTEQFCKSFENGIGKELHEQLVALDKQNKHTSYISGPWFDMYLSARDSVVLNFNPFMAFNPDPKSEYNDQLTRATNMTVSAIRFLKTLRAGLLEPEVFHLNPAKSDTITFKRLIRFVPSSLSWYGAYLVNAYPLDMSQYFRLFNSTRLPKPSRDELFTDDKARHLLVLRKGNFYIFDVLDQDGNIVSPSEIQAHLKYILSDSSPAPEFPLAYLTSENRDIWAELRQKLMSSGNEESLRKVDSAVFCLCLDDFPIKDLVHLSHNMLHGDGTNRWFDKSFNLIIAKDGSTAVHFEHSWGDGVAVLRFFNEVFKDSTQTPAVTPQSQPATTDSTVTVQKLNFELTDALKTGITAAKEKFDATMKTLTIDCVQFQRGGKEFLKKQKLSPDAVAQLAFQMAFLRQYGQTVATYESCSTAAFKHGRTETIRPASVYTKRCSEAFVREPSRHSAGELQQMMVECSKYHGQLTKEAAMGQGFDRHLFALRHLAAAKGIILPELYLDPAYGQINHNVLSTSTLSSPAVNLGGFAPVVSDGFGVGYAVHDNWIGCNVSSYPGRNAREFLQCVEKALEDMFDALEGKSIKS
Experimental: Direct interaction of CPT II WT and variants with phospholipids of the mitochondrial membrane was assessed using membrane lipid strips (Echelon Biosciences, Salt Lake City, Utah, USA). The membrane was spotted with 100 pmol of various cell membrane lipids. The assay was performed following manufacturer’s instructions with some modifications explained in the following. At first, the membrane was washed twice in phosphate buffered saline (PBS). After 1 h incubation with blocking solution (3% BSA fatty acid-free in PBS) at room temperature, the membrane was incubated with purified CPT II WT or variant (final amount 0.4 mg protein) for 2 h at 4 °C. After three washing steps, a-His-Probe (H3) mouse monoclonal antibody (Santa Cruz Biotech, Santa Cruz, CA, USA, 1:1000 dilution in PBS containing 3% BSA) was added to the membrane over night at 4 °C. The membrane was washed three times with PBS and incubated with mouse IgG horseradish peroxidase-linked whole antibody (from sheep, Amersham, Little Chalfont, Buckinghamshire, UK) for 1 h at 4 °C. The interaction was visualized by ECL Western blotting detection reagents (Amersham, Little Chalfont, Buckinghamshire, UK).

[2] = test system: recombinant human CPT II WT; parameters: method as in PMID 13534673; details: cited from earlier work
[3] = molecular target: T2, CPT II variant S113L (Homo sapiens, UniProt P23786, S113L); parameters: method as in PMID 13534673; details: cited from earlier work
T2 construct: made in house; host or cells: Escherichia coli BL21Gold DE
T2 sequence (P23786 26-658 S113L): T1 sequence (P23786 26-658 P50H) with H25P, S88L

Substance: Cardiolipin [CL]
- Signal for interaction on membrane lipid strips [1]: lowest; also recorded: clearly proven
- Effect of CL on enzyme activity [2]: activity-increasing effect
- Effect of CL on enzyme activity [3]: no benefit
